Reference: patent US8071552B2, “Peptides and peptidomimetics binding to CD23” (Universite Bordeaux 2, priority 2004, dated 2011)
Several values for one entry are separate records, joined by “and”; a condition that tells them apart may be missing. Identical values can stand only once. No end group written: not given here.

Columns and labels:
[1] = system: Monocyte-derived macrophages (CD23+); test: Quantification of inflammatory response: nitrites (Greiss) from CD23-activated human macrophages, % inhibition relative to controls; format: cell-based; conditions: human macrophages activated through CD23
Source text: Monocytes are isolated from normal human peripheral blood. Samples are collected from normal volunteers (20-50 years) by blood bank. They are all tested for the absence of HIV or HBV contaminations prior to use. Human normal mononuclear cells are obtained by Ficoll (Histopaque, Sigma) gradient separation of peripheral blood leukocytes. Monocytes are separated from lymphocytes by adherence to plastic dishes coated with fetal calf serum (FCS) as described (Vouldoukis I., et al., Proc. Natl. Acad. Sci. USA., 92: 7804-7808 1995). Following this procedure, >90% of cells express CD14 antigen and display cytochemical characteristics of monocytes. The cells are then incubated in DMEM supplemented with L-non-essential amino acids, sodium pyruvate, glutamine, penicillin, streptomycin, and 10% FCS (all from Gibco Laboratories, Grand Island, N.Y.). Above culture medium, chemicals, and FCS are tested for the absence of direct activation effect on human monocytes (CD23 expression and TNF-α production as activation markers). Following 24-48 hr adherence to culture flasks, these cells differentiate into macrophage-like cells displaying non-specific esterase activity that is inhibited by sodium fluoride.
Normal human donor-derived adherent cells have low if any surface CD23 expression and are designated in the present work as macrophages. CD23 expression is obtained following cell incubation with recombinant human interleukin 4 ([…]). […] Tissue-derived macrophages are mostly CD23^+.
Monocyte-derived macrophages (CD23^+) are activated through the cross-linking of their CD23 surface molecules by appropriate MoAb (20 μg/ml, clone 135, IgG1κ isotype) or by human IgE/anti-IgE complexes (IgE, Stallergene, Paris, France; goat anti-human-IgE, Nordic Immunology, Tilburg, The Netherlands). This activation pathway promotes the activation of iNOS mRNA transcription and the generation, by macrophages, of various inflammatory mediators such as nitric oxide (NO), TNF-α, reactive oxygen radicals, IL-1, and IL-6 (for, a review see: Dugas B, et al., Immunol Today, 16:574-580(1995)).
Following 1-3 day incubation at 37° C., 5% CO2 in humid atmosphere, macrophages are analyzed for their inflammatory response as following:
48-96 hr incubation: Collection of supernatants for the detection of cytokines and nitrites. Nitrites are quantified by Greiss method (Davies et al., Methods in Molecular Biology, 225:305-320, 2003) while IL-1, IL-6 and TNF-α: were quantified using commercial ELISA kits. The following antibodies and reagents were utilized:
Following quantitation of nitrites, a percentage inhibition relative to controls is calculated.

CD23+ cells [2] = test: Inhibition of NO generation from activated macrophages (nitrites by Greiss reaction); format: cell-based, human; conditions: peptide 4 hours, then IgE/anti-IgE; 3-5 day incubation
Procedure: (§1) For inflammatory functions, cells are pre-incubated with CD23-counterstructures during 4 hours prior to their incubation with CD23-MoAb or IgE/anti-IgE complexes. Cell supernatants are collected 2-4 days later and tested for their contents in various mediators.
Inflammatory responses of human macrophages almost correlated with in vivo generation of nitric oxide by these cells. We use this inflammatory mediator as a marker of cell activation.
(§2) CD23^+ cells are incubated in the presence or the absence of an inhibitory peptide (p30A) for 4 hours. CD23-MoAb or IgE/anti-IgE immune complexes are added. Following 3-5 day incubation, cell supernatants are harvested and the level of nitrites quantified by Greiss reaction (Davies et al., Methods in Molecular Biology, 225:305-320, 2003).

[3] = system: macrophages derived from synovial fluid of patients with Rheumatoid Arthritis; test: NO generation by macrophages derived from synovial fluid of patients with Rheumatoid Arthritis; format: cell-based, human; conditions: RA synovial fluid macrophages
Procedure: as §2, with “[…])” for “(p30A)”, “2003). The effect of CD23-Peptide or a negative control on inflammatory functions of macrophages derived from synovial fluid of patients with Rheumatoid Arthritis is also investigated.” for “2003).”

[4] = system: rat peritoneal macrophages and rat peripheral macrophages; test: NO production from rat peritoneal and peripheral macrophages induced by IgE/DNP-BSA; format: cell-based; conditions: peptide 4 hours, 3-5 day incubation
Procedure: NO production from rat peritoneal macrophages and rat peripheral macrophages is also determined. Peritoneal macrophages are highly CD23^+ and produce much higher quantities of pro-inflammatory mediators compared to peripheral blood-derived cells. CD23^+ cells are incubated in the presence or the absence of an inhibitory peptide (p30A) for 4 hours. IgE/DNP-BSA is added to induce CD23 cross-linking. L-NIL is a specific inhibitor of NOS-II. Pep− is a negative control peptide. Following 3-5 day incubation, cell supernatants are harvested and the level of nitrites quantified by Greiss reaction (Davies et al., Methods in Molecular Biology, 225:305-320, 2003).

CD23+ cells [5] = test: Inhibition of TNF-α generation from activated macrophages (ELISA); format: cell-based, human
Procedure: as §1
In addition to NO, the effect of peptides on the production of TNF-α, a well-documented effector factor during inflammatory diseases, is also tested.
(§3) CD23^+ cells are incubated in the presence or the absence of an inhibitory peptide (p30A) for 4 hours. CD23-MoAb or IgE/anti-IgE immune complexes are added. Following 3-5 day incubation, cell supernatants are harvested and the level of TNF-α, quantified by specific ELISA.

[6] = system: macrophages derived from peripheral blood or the synovial fluid of patients with Rheumatoid Arthritis; test: TNF-α generation by macrophages from peripheral blood or synovial fluid of patients with Rheumatoid Arthritis; format: cell-based, human; conditions: for level of TNF-α: p30A + CD23-Ab
Procedure: as §3, with “ELISA. The effect of CD23-Peptide or a negative control on inflammatory functions of macrophages derived from peripheral blood or the synovial fluid of patients with Rheumatoid Arthritis is also investigated.” for “ELISA.”

arthritic rats = test: Treatment of arthritic rats (Mycobacterium butyricum-induced arthritis); format: in vivo, Lewis rats
Procedure: On day 0, 6-week old female Lewis rats weighing 145-155 g are injected subcutaneously with an arthritis-inducing emulsion. The rats are injected with 300 μl of the emulsion which contains: • 2 mg/rat heat-inactivated Mycobacterium butyricum diluted into; • 240 μl of Vaseline; • 30 μl of Tween-20; and • 30 μl of PBS.
The immunization step is repeated on day 7. The rats present arthritis signs by days 15 have to 21. Arthritic signs are assigned a clinical score (1-4). By day 40, the clinical scores increase from 1 to 3 or 4. Slower weight progression is also observed in immunized rats (FIG. 1a).
However, subcutaneous injection of 5 mg of p30A after the appearance of clinical signs results in complete remission of arthritic symptoms for 50% of the rats (FIG. 1b) as well as decreased clinical scores in 25% of the remaining rats.

[7] = system: Adjuvant arthritis (AA) rats; test: In vivo prevention and treatment of adjuvant arthritis in rats with p30A; parameters: species or system Lewis rats
Procedure: Each group of animals comprises eight rats. Female Lewis rats (Janvier, Le Genest St Isle, France) are housed under standard laboratory conditions and the animals are allowed free access to food and water. The temperature is kept at 22±2° C. and a 12-hour light/dark schedule is maintained. All animal procedures are performed in strict accordance with the guidelines issued by the European Economic Community “86/609”. Adjuvant arthritis (AA) is induced in six weeks-old animals by subcutaneous injection at the base of the tail of 300 μl (1.8 mg) of inactivated Mycobacterium butyricum (Difco Laboratories, Detroit, Mich.) diluted in emulsion of 8 ml Vaseline, 1 ml polysorbate 80, and 1 ml PBS (Phosphate Buffer Saline, BioWhittaker, Walkersville, Md.). Rats are boosted one week later with the same dose of antigen and observed for up to 50 days following immunization for clinical symptoms of arthritis. Evaluation of AA severity is performed by two independent observers with no knowledge of the treatment protocol. The severity of AA in each paw is quantified daily by a clinical score measurement from 0 to 2 as following: no signs of inflammation (0); swelling alone (>2 fold paw diameter) (0.5) or swelling/immobility (1.0) of one paw; swelling (1,5) or swelling/immobility (2,0) of two paws. Weight evolution of the animals is measured daily. Rats are injected with peptides or peptidomimetics (dissolved in 0.1% DMSO) I.C. every two days (day 0, 2, 4, 6, and 8) during the initiation of inflammation (preventive) or following the appearance of the inflammatory signs. As negative control, rats are injected with saline.
Clinical scores are determined as described above, and the cumulative clinical score is plotted against days post-immunization (FIGS. 2, 3, and 4).
In each of FIGS. 2, 3, and 4, arrows below the x-axis indicate the days on which IC injections were administered.

[8] = Peripheral Macrophages of RA patients
[9] = subcutaneous injection of 5 mg after the appearance of clinical signs

Substance: Ac n w CO2H [Compound 492]
- % Inhibition (nitrites relative to controls; inhibition of iNOS production) [1]: 77%

Substance: Ac w n CO2H [Compound 491]
- % Inhibition (nitrites relative to controls; inhibition of iNOS production) [1]: 94%

Substance: G[allyl-] N W G[allyl-] S [Compound 490]
- % Inhibition (nitrites relative to controls; inhibition of iNOS production) [1]: 81%

Substance: H E N W S [Compound 437]
- % Inhibition (nitrites relative to controls; inhibition of iNOS production) [1]: 56%

Substance: F H E N W beta A S [Compound 328]
- % Inhibition (nitrites relative to controls; inhibition of iNOS production) [1]: 26%

Substance: NH2 G[allyl-] N W G[allyl-] [Compound 489]
- % Inhibition (nitrites relative to controls; inhibition of iNOS production) [1]: 62%

Substance: Ac N W CO2H [Compound 411]
- % Inhibition (nitrites relative to controls; inhibition of iNOS production) [1]: 84%

Substance: FHENWPS [p30A]
- level of nitrites [NO2-] (CD23+ cells [2]): 2.6 µM and 1.4 µM
- level of nitrites [NO2-] ([3]; peptide + CD23-Ab): 7.9 µM and 9.5 µM
- level of nitrites [NO2-] ([3]; peptide alone (no CD23-Ab)): 8.5 µM and 10.3 µM
- IgE/DNP-BSA-induced NO production by macrophages [4]: inhibits IgE/DNP-BSA-induced NO production
- % Inhibition of TNF-α (CD23+ cells [5]; p30A + CD23-Ab versus CD23-Ab): 47% and 54%
- level of TNF-α (CD23+ cells [5]; peptide 4 hours, then CD23-Ab, 3-5 day incubation): 77 pg TNF-α/ml and 89 pg TNF-α/ml
- % Inhibition of TNF-α [6, 8]: 73%
- level of TNF-α [6, 8]: 40 pg TNF-α/ml
- % Inhibition of TNF-α ([6]; SF Macrophages of RA patients): 41%
- level of TNF-α ([6]; SF Macrophages of RA patients): 140 pg TNF-α/ml
- remission of the arthritic condition (arthritic rats; intraperitoneal injection or intravenous treatment): do not induce remission
- remission of arthritis (FIG. 1b) (arthritic rats; subcutaneous injection of 5 mg): results in remission
- complete remission of arthritic symptoms (arthritic rats; [9]): 50 % of the rats
- decreased clinical scores (arthritic rats; [9]): 25 % of the remaining rats
- arthritis appearance (arthritic rats; unique injection (intraperitoneal or subcutaneous) at day 0): no affect on arthritis appearance
- cumulative clinical score, preventive treatment (FIG. 2) ([7]; injections every two days from immunization, two dosage regimes, versus control rats): clearly superior clinical scores compared to control rats
- weight gain (FIG. 4) ([7]; rats with arthritic symptoms, versus untreated arthritic rats): produced weight gain
- cumulative clinical score, therapeutic treatment (FIG. 3) ([7]; treated from day of first symptoms, 3 dosage regimes, versus control rats): clear therapeutic effect

Substance: Ac N W BetaA CO2H [Compound 410]
- % Inhibition (nitrites relative to controls; inhibition of iNOS production) [1]: 61%

Substance: H E N W Sar S [Compound 398]
- % Inhibition (nitrites relative to controls; inhibition of iNOS production) [1]: 74%
